Results as given in publication PMC3047509 (Journal of the American Chemical Society, 2011).
Bridge positions count the residues as written; N and C are the ends. Peptide text beside a SMILES is read from it.

Tests used:
CBP BRD = CBP BRD (Homo sapiens, UniProt Q92793); assay: competition fluorescent polarization; format: binding; conditions: FP competition assay; relative to linear p53-K382ac
[1] = system: endogenous p53 and p21 proteins in HCT116 cells; assay: western blot of endogenous p53 and p21 after doxorubicin; format: cell-based, human; conditions: peptide 12 hours, then doxorubicin 300 ng/ml for 24 hrs
[2] = system: p53-induced p21 activation; assay: p53-based p21-luciferase assay; format: cell-based, human; conditions: HCT116 cells, doxorubicin treatment

Chain of CBP BRD (Q92793 1085-1192 limits assumed): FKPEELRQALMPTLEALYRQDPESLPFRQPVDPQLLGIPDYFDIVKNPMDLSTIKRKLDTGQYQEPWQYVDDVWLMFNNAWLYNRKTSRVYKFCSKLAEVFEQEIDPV

Compound: CC(=O)NCCCC[C@@H]1NC(=O)[C@H](CCCCN)NC(=O)[C@H](Cc2c[nH]cn2)NC(=O)[C@@H](N)CSSC[C@@H](C(=O)N[C@@H](Cc2ccccc2)C(=O)N[C@@H](CCCCN)C(N)=O)NC(=O)[C@H](CC(C)C)NC1=O [compound 1] (H-CHKK(Ac)LCFK-NH2; disulfide 1-6; N-terminus and C-terminus assumed)
- fold increase in binding affinity over linear p53-K382ac peptide (CBP BRD): 9 fold

Compound: CC(=O)NCCCC[C@@H]1NC(=O)[C@H](CCCCN)NC(=O)[C@H](Cc2c[nH]c3ccccc23)NC(=O)[C@@H](N)CSSC[C@@H](C(=O)N[C@@H](Cc2ccccc2)C(=O)N[C@@H](CCCCN)C(N)=O)NC(=O)[C@H](CC(C)C)NC1=O [compound 4] (H-CWKK(Ac)LCFK-NH2; disulfide 1-6; N-terminus and C-terminus assumed)
- protein level of endogenous p53 and p21 [1]: effectively reduced the protein level of endogenous p53 and p21
- fold increase in binding affinity over linear p53-K382ac peptide (CBP BRD): 24 fold
- inhibition of p53-induced p21 luciferase activation [2]: dose-dependent inhibition
